According to patent US20230053688A1, “METHODS TO ALTER LATENCY IN EBV+ MALIGNANCIES” (Cornell University, priority 2020, published 2023):
Structures can show the parent of a compound that is named as a salt. Where two headings read alike, the source gives them in different places.

Tested on: LMP1 expression in Kem I cells
Experiment: microbe, parasite or virus in culture
Assay type: cell-based, EBV
Conditions: for Average LMP1 Fold Increase / Replicate 1-LMP1 Fold Increase / Replicate 2-LMP1 Fold Increase: Kem I cells, 48 hours; for fold induction at 2.5 µM: human gammaherpesvirus 4, 48 h
[1] = 2.5 uM, average of replicates 1 and 2
[2] = 2.5 uM, fold change in LMP1 transcript vs vehicle
[3] = read-out: Average LMP1 Fold Increase, Kem I cells, 2.5 uM, 48 hours, average of replicates 1 and 2
[4] = read-out: Replicate 1-LMP1 Fold Increase, Kem I cells, 2.5 uM, 48 hours, fold change in LMP1 transcript vs vehicle
[5] = read-out: Replicate 2-LMP1 Fold Increase, Kem I cells, 2.5 uM, 48 hours, fold change in LMP1 transcript vs vehicle

Compound	Average LMP1 Fold Increase [1]	Replicate 1-LMP1 Fold Increase [2]	Replicate 2-LMP1 Fold Increase [2]	further results
CO[C@H]1C[C@@H]2CC[C@@H](C)[C@@](O)(O2)C(=O)C(=O)N2CCCC[C@H]2C(=O)O[C@H]([C@H](C)C[C@@H]2CC[C@@H](OC(=O)C(C)(CO)CO)[C@H](OC)C2)CC(=O)[C@H](C)/C=C(\C)[C@@H](O)[C@@H](OC)C(=O)[C@H](C)C[C@H](C)/C=C/C=C/C=C/1C [Temsirolimus (CCI-779, NSC 683864)]				Average LMP1 Fold Increase (dose 2.5 uM, LMP1 transcript by in-well qRT-PCR, average of the two replicates): 155.77 fold; Replicate 1-LMP1 Fold Increase (dose 2.5 uM, LMP1 transcript by in-well qRT-PCR, screen replicate 1): 1.06 fold; Replicate 2-LMP1 Fold Increase (dose 2.5 uM, LMP1 transcript by in-well qRT-PCR, screen replicate 2): 310.48 fold
Cc1cnc(-c2cc(N3CCN(C(=O)CCS(C)(=O)=O)CC3)ncc2Cl)c(C)c1 [PF-5274857]	0.87	1.12	0.62	
O=C(NCCN1CCOCC1)c1ccc(Cl)cc1 [Moclobemide (Ro 111163)]	0.55	0.28	0.81	
CC1(C)CCC(c2ccc(Cl)cc2)=C(CN2CCN(c3ccc(C(=O)NS(=O)(=O)c4ccc(N[C@H](CCN5CCOCC5)CSc5ccccc5)c(S(=O)(=O)C(F)(F)F)c4)cc3)CC2)C1 [ABT-263 (Navitoclax)]	0.27	0.21	0.33	
O=C(O)Cn1nnc(-c2cc(N3CCC(Oc4cc(F)ccc4Br)CC3)no2)n1 [MK-8245]				fold induction at 2.5 µM [3]: 1.17; fold induction at 2.5 µM [4]: 1.51; fold induction at 2.5 µM [5]: 0.84
Cl.NC(=O)c1cnc(N[C@@H]2CCCC[C@@H]2N)nc1Nc1cccc(-n2nccn2)c1 [PRT062607(P505-15, BIIB057) HCl]	0.54	0.25	0.83	
Cc1cc(Nc2cc(CN3CCOCC3)c3nc(C)c(Cc4ccc(Cl)cc4F)n3n2)n[nH]1 [LY2784544]	0.94	1.24	0.65	
CC(C)C[C@H](NC(=O)[C@@H](NC(=O)c1cccc(-c2ccccc2)n1)[C@@H](C)O)B(O)O [CEP-18770 (Delanzomib)]	96.92	98.21	95.63	
CCn1c(=O)c2c(nc(/C=C/c3ccc(OC)c(OC)c3)n2C)n(CC)c1=O [Istradefylline]				fold induction at 2.5 µM [3]: 0.7; fold induction at 2.5 µM [4]: 0.35; fold induction at 2.5 µM [5]: 1.06
CC(C)c1onc(-c2c(Cl)cccc2Cl)c1COc1ccc(/C=C/c2cccc(C(=O)O)c2)c(Cl)c1 [GW4064]	0.72	0.94	0.50	
CC(C)(C)c1cc(C(C)(C)C)c(NC(=O)c2c[nH]c3ccccc3c2=O)cc1O [Ivacaftor (VX-770)]	1.35	2.22	0.49	
Cc1ccc(NCCCc2ccccc2)c(N)c1 [JSH-23]	0.77	0.86	0.69	
CN(C)C(=O)Nc1cccc(-c2ccc(N(C)C)cc2)c1 [Atglistatin]	0.99	0.75	1.23	
O=C(/C=C\n1cnc(-c2cc(C(F)(F)F)cc(C(F)(F)F)c2)n1)N1CC(F)(F)C1 [KPT-276]	1.94	0.97	2.91	
CC(=O)Nc1cccc2c1c(Sc1ccc(Cl)cc1)c(C)n2CC(=O)O [AZD1981]	0.80	1.13	0.46	
Cc1[nH]c(/C=C2\C(=O)Nc3ccc(S(=O)(=O)N(C)c4cccc(Cl)c4)cc32)c(C)c1C(=O)N1CCN(C)CC1 [SU11274]				fold induction at 2.5 µM [3]: 0.94; fold induction at 2.5 µM [4]: 1.05; fold induction at 2.5 µM [5]: 0.82
CCn1c2ccccc2c2cc(Nc3ccnc(NCCCN4CCOCC4)n3)ccc21 [EHop-016]	1.06	0.70	1.43	
CCc1cc(Nc2nccc(-c3c(-c4ccc(OC)c(C(=O)Nc5c(F)cccc5F)c4)nc4ccccn34)n2)c(OC)cc1N1CCC(N2CCN(S(C)(=O)=O)CC2)CC1 [GSK1904529A]	0.20	0.18	0.23	
Cc1cc([C@@H](C)Nc2ccccc2C(=O)O)c2nc(N3CCOCC3)cc(=O)n2c1 [AZD6482]	0.22	0.06	0.37	
Nc1cccc2c1C(=O)N(C1CCC(=O)NC1=O)C2=O (stereo not drawn) [Pomalidomide]				fold induction at 2.5 µM [3]: 5.8; fold induction at 2.5 µM [4]: 3.72; fold induction at 2.5 µM [5]: 7.87
Cc1c(C(=O)Nc2ccc(N3C[C@@H](C)O[C@@H](C)C3)nc2)cccc1-c1ccc(OC(F)(F)F)cc1 [LDE225 (NVP-LDE225, Erismodegib)]	0.39	0.50	0.29	

Compound	Average LMP1 Fold Increase [1]	Replicate 1-LMP1 Fold Increase [2]	Replicate 2-LMP1 Fold Increase [2]	further results
CCN(CC)C(=O)/C(C#N)=C/c1cc(O)c(O)c([N+](=O)[O-])c1 [Entacapone]				fold induction at 2.5 µM [3]: 0.6; fold induction at 2.5 µM [4]: 0.49; fold induction at 2.5 µM [5]: 0.71
COc1cc(F)c(C(C)C)cc1-c1ccc(C(F)(F)F)cc1CN1C(=O)O[C@H](c2cc(C(F)(F)F)cc(C(F)(F)F)c2)[C@@H]1C [Anacetrapib (MK-0859)]	0.63	0.80	0.46	
C/C(=N\NC(=S)N1CCC1)c1ccccn1 [NSC 319726]	19.87	7.26	32.48	
CCN1CCN(c2ccc(Nc3cc(N(C)C(=O)Nc4c(Cl)c(OC)cc(OC)c4Cl)ncn3)cc2)CC1 [BGJ398 (NVP-BGJ398)]	0.85	1.02	0.69	
CCOC(=O)c1ccc(N2NC(=O)/C(=C/c3ccc([N+](=O)[O-])o3)C2=O)cc1 [PYR-41]	0.49	0.50	0.49	
O=c1cc(-c2cccc3c2Sc2ccccc2S3)oc(N2CCOCC2)c1 [KU-55933 (ATM Kinase Inhibitor)]	0.78	0.60	0.95	
(−)-MK 801 Maleate	0.88	0.94	0.81	
Cc1cc(Nc2ncc(Cl)c(Nc3ccccc3S(=O)(=O)C(C)C)n2)c(OC(C)C)cc1C1CCNCC1 [LDK378]				fold induction at 2.5 µM [3]: 0.67; fold induction at 2.5 µM [4]: 0.85; fold induction at 2.5 µM [5]: 0.49
COc1ccc2nc([S@@+]([O-])Cc3ncc(C)c(OC)c3C)[nH]c2c1 [Esomeprazole Sodium]				fold induction at 2.5 µM [3]: 0.3; fold induction at 2.5 µM [4]: 0.16; fold induction at 2.5 µM [5]: 0.44
CC1=C(C(=O)Nc2cc3cn[nH]c3cc2F)C(c2ccc(C(F)(F)F)cc2)CC(=O)N1 (stereo not drawn) [GSK429286A]	0.57	0.60	0.54	
c1ccc(CNc2nc(NCc3ccccc3)c3ccccc3n2)cc1 [DBeQ]	0.99	0.72	1.25	
CO[C@H]1C[C@@H]2CC[C@@H](C)[C@@](O)(O2)C(=O)C(=O)N2CCCC[C@H]2C(=O)O[C@H]([C@H](C)C[C@@H]2CC[C@@H](OP(C)(C)=O)[C@H](OC)C2)CC(=O)[C@H](C)/C=C(\C)[C@@H](O)[C@@H](OC)C(=O)[C@H](C)C[C@H](C)/C=C/C=C/C=C/1C [Ridaforolimus (Deforolimus, MK-8669)]	3.37	6.08	0.67	
C=C1C[C@@H]2[C@H](CC[C@]3(C)C(=O)CC[C@@H]23)[C@@]2(C)C=CC(=O)C=C12 [Exemestane]				fold induction at 2.5 µM [3]: 0.7; fold induction at 2.5 µM [4]: 0.53; fold induction at 2.5 µM [5]: 0.86
Cc1[nH]c(/C=C2\C(=O)Nc3ccc(S(=O)(=O)Cc4c(Cl)cccc4Cl)cc32)c(C)c1C(=O)N1CCC[C@@H]1CN1CCCC1 [PHA-665752]				fold induction at 2.5 µM [3]: 0.69; fold induction at 2.5 µM [4]: 0.55; fold induction at 2.5 µM [5]: 0.84
O=C(NNc1nc2cc(F)ccc2n2cccc12)c1cnccn1 [SC144]	1.51	1.00	2.02	
CC(C)c1c(C(=O)Nc2ccccc2)c(-c2ccccc2)c(-c2ccc(F)cc2)n1CC[C@@H](O)C[C@@H](O)CC(=O)[O-].CC(C)c1c(C(=O)Nc2ccccc2)c(-c2ccccc2)c(-c2ccc(F)cc2)n1CC[C@@H](O)C[C@@H](O)CC(=O)[O-].[Ca+2] [Atorvastatin Calcium]	0.09	0.05	0.14	
Cc1cc(C(C)(C)C)c(O)c(C)c1CC1=NCCN1 [Oxymetazoline HCl]				fold induction at 2.5 µM [3]: 0.66; fold induction at 2.5 µM [4]: 0.6; fold induction at 2.5 µM [5]: 0.72
CCOC(=O)N1CCC(=C2c3ccc(Cl)cc3CCc3cccnc32)CC1 [Loratadine]				fold induction at 2.5 µM [3]: 0.28; fold induction at 2.5 µM [4]: 0.24; fold induction at 2.5 µM [5]: 0.32
NC(=O)c1cccc(-c2cc(Nc3ccc(OC(F)(F)F)cc3)ncn2)c1 [GNF-2]	1.06	0.21	1.91	
CCn1c(-c2nonc2N)nc2c(C#CC(C)(C)O)ncc(OC[C@H]3CCCNC3)c21 [GSK690693]	0.63	0.85	0.41	
